Measured values: patent US10800806B2, “Sterol derivatives and use thereof for treating diseases involving transformed astrocyte cells or for treating malignant haemopathies” (BETA INNOV, priority 2012, dated 2020)
Entries after “also recorded” stand apart in the source; their conditions may differ.

Assays:
C6 cells = assay: Anti-GBM activity in vitro on cultures of C6 cells (cell counting, protein assay, MTT test); format: cell-based, rat; settings: 15 μm, ethanol 3%
Protocol: Plastic flat-bottomed 96-well culture plates (NUNC, USA) treated for cell culture (Sigma-Aldrich, ref. 114754) are used; 1500 cells are seeded per well in 200 μl of culture medium. At the time of treatment, 100 μl of pure culture medium, 100 μl of culture medium containing ethanol, or liposomes, or 100 μl of culture medium containing the active ingredients are added per well; the final volume of the culture medium, after treatment, is therefore 300 μl for all the wells.
The cultures are incubated in a Sanyo incubator (Japan, model MCO-19AlC-UV) at 37° C. and in an atmosphere with 5% CO2 and saturated in humidity. The cells are observed with an inverted microscope (Nikon Eclipse TS100, Japan) and the photographs are taken with a camera (DIGITAL camera with c-mount; LABOVER, France). The culture hood is a microbiological safety hood MSC (thermo SCIENTIFIC, model HERA SAFE KS12, France).
The type C6 cell line was obtained by Benda et al. (16) from rat brain tumours, induced by N-methylnitrosourea. This cell type is used as “in vitro” and “in vivo” model for evaluating anti-GBM potential. The lines originate from the former Strasbourg Neurochemistry Centre (U44 INSERM and UPR 416 CNRS).
The culture medium is made up of 70% Minimum Essential Medium (MEM; (Fischer Scientifique, ref. 61100) and 30% Hanks solution (SIGMA, ref. H 9269). The following are added to the culture medium: foetal calf serum (FCS; Fischer Scientifique, ref. 10108165) at a final concentration of 5% (v/v), an antibiotic solution of ciprofloxacin hydrochloride 5 μg/mL (EUROMEDEX, ref. UC5074) and a solution of Fungizone 2.5 μg/mL (INVITROGEN, ref. 15290-026). The doubling time of this cell type is 17 h. • GBM lines of human origin
The active ingredients are either dissolved in absolute ethanol (AnalaR, NORMAPUR, VWR, France) or in the form of a liposomal solution, such as 10 μl of the stock solutions diluted in 990 μl and then added to the culture wells (200 μl of culture medium) giving concentrations of 30.0, 15.0, 7.5 and 3.3 μM (final volume of culture medium per well BI-GBM: 300 μl).
When the active ingredients are in ethanolic solution, the culture medium contains […] ethanol (v/v).
A method of cell counting on photographs was used.
For example, in the case of the cultures in 96-well plates and as a function of the magnification of the microscope used (objectives×10 or ×20, oculars×10), a photograph taken represents a field of view with a diameter equal to 1/5 of the diameter of a well. Therefore the total number of cells in a well is equal to […] the number of cells per photograph. This technique was compared with a standard technique (trypsinization of the cell layer, centrifugation of the cells, suspension of the cells in physiological saline solution and counting with a THOMA cell) in the case of the C6 cells. The results obtained are identical for both methods.
The culture medium is withdrawn from each well and 50 μl of Laemmli buffer (0.1 ml of Tris, 0.8 ml of glycerol, 1.6 mL of 10% SDS, 8 ml q.s.f ultrapure water) is added per well.
In control wells, 10 μl of a solution of bovine serum albumin range (crystallized BSA, Sigma) is added; the range is from 0 to 20 μg per well. The wells are then supplemented with 40 μl of Laemmli buffer. Finally, 200 μl of solution of BCA reagent is added (Pierce, USA; BCA Protein Assay Kit; ThemoScientific, France).
The culture plates are incubated for 30 min at 37° C. The optical density for each well is read and quantified by a plate reader (BioRad, USA, iMark Microplate reader 12222) at 570 nm.
This test makes it possible to detect the cellular respiration, especially the mitochondrial respiration. The stock solution of tetrazolium salt MTT (3-(4,5-dimethylthiazol-2-yl)-2,5-diphenyl tetrazolium bromide, Sigma-Aldrich, USA, ref. M5655) is prepared with 10 mg of MIT/ml of PBS buffer (phosphate-buffered saline, SIGMA, ref. D 1408). […]

[1] = system: liver cancer cells (ATCC-HB-8065); assay: Activity in vitro on liver cancer cells; format: cell-based, human; settings: 30 μM, ethanolic form
Protocol: They were obtained from ATCC (ref. ATCC-HB-8065). The culture medium consists of MEM (Gibco, USA; ref. 51200) and 10% (v/v) FCS. The doubling time is 60 h. • Prostate cancer cells
(§1) The cancer cells used are from liver (ref. ATCC-HB-8065), prostate (ref. ATCC-HTB-81), breast (ref. ATCC-HTB-19) cancer cells, and from colon cancer cells (ECACC-HT29/219) of human origin, mentioned above.

[2] = system: breast cancer cells (ATCC-HTB-19); assay: Activity in vitro on breast cancer cells; format: cell-based, human; settings: 30 μM, ethanolic form
Protocol: They were obtained from ATCC (ref. ATCC-HTB-19). The culture medium is the same as that used for the liver cancer lines. The doubling time is 20 h. • Colon carcinoma (line HT29/219)
as §1

[3] = system: CD133+ stem cells (U87-MG cultures); assay: Immunolabelling of the CD133+ stem cells with the A/B peroxidase system; format: cell-based, human; settings: for CD133+ cells, percentage relative to the controls: 30 μM in ethanolic form
Protocol: The anti-CD133 (poly, Abnova), anti-GFAP (poly, Sigma), anti-NFL (mono, Santa Cruz) and anti-fibroblast (ERTR7, Santa Cruz) primary antibodies are diluted to 1/100 in the case of the first three antibodies and to 1/50 in the case of the last.
The secondary antibodies corresponding to recognition of the primary antibodies are anti-rabbit antibodies coupled to peroxidase (goat, Sigma), anti-mouse coupled to Dylight 488 (sheep, Sigma), anti-mouse coupled to Dylight 488 (sheep, Sigma) and anti-rat coupled to FITC (rabbit, Sigma). The dilutions are 1/4000, 1/1000, 1/4000 and 1/400 respectively.
The cells are permeabilized for 5 min with 0.1% Triton X-100 (Sigma) in PBS (Fisher Scientific). The nonspecific sites are blocked with 2% BSA (Sigma) in PBS. Incubations are carried out for 1 h at ambient temperature, 48 h at 4° C., 24 h at 4° C. and 1 h at ambient temperature for the anti-CD133, anti-GFAP, anti-NFL and anti-Fibroblast antibodies respectively. Incubation with the secondary antibodies is carried out for 1 h at ambient temperature. The CD133 positive cells are detected by the DAB/H2O2 system (Sigma), and observed with an optical microscope.
The immunolabelling is carried out as described above (section II, A).

SMILES	Live residual cells (C6 cells)	effect on cellular division and respiration [1]	effect on cellular division and respiration [2]	CD133+ cells, percentage relative to the controls ([3]; 4 days of treatment)	CD133+ cells, percentage relative to the controls ([3]; 22 days of treatment)	destruction of the CD133+ stem cells ([3]; ethanolic form, 22 days of treatment)	appearance of CD133+ stem cells after replacing the culture medium with fresh drug-free medium ([3]; medium replaced at 22 days)
CC(C)CCCC(C)C1CCC2C3C(OC(=O)OC(C)(C)C)C=C4CC(OC(=O)C5COC(C)(C)O5)CCC4(C)C3CCC12C (stereo not shown) [Molecule 2.a, 7-((tert-butoxycarbonyl)oxy)-10,13-dimethyl-17-(6-methylheptan-2-yl)-2,3,4,7,8,9,10,11,12,13,14,15,16,17-tetradecahydro-1H-cyclopenta[a]phenanthren-3-yl 2,2-dimethyl-1,3-dioxolane-4-carboxylate]	100%						
CC(=O)OC1C=C2CC(OC(=O)C3COC(C)(C)O3)CCC2(C)C2CCC3(C)C(C(C)CCCC(C)C)CCC3C12 (stereo not shown) [Molecule 2.b, 7-acetoxy-10,13-dimethyl-17-(6-methylheptan-2-yl)-2,3,4,7,8,9,10,11,12,13,14,15,16,17-tetradecahydro-1H-cyclopenta[a]phenanthren-3-yl 2,2-dimethyl-1,3-dioxolane-4-carboxylate]		no effect	no effect	100%	0%	completely destroyed; also recorded: completely destroys the stem cells	does not lead to the appearance of CD133+ stem cells
